# Test results: ChEMBL document CHEMBL5537122, “Design, synthesis, and biological evaluation of 4-(2-fluorophenoxy)-7-methoxyquinazoline derivatives as dual EGFR/c-Met inhibitors for the treatment of NSCLC” (Eur J Med Chem, 2024)
# Legend:
# A549 = assay: Antiproliferative activity against human A549 cells overexpressing c-Met and EGFR assessed as reduction in cell viability incubated for 72 hrs by MTT assay; format: functional, cell-based; conditions: A549, 72 h
# NCI-H1975 = assay: Antiproliferative activity against human NCI-H1975 cells overexpressing c-Met and EGFR assessed as reduction in cell viability incubated for 72 hrs by MTT assay; format: functional, cell-based; conditions: NCI-H1975, 72 h
# PC-9 = assay: Antiproliferative activity against human PC-9 cells overexpressing c-Met and EGFR assessed as reduction in cell viability incubated for 72 hrs by MTT assay; format: functional, cell-based; conditions: PC-9, 72 h
# [1] = molecular target: Epidermal growth factor receptor (Homo sapiens, UniProt P00533); assay: biochemical
# Chain of Epidermal growth factor receptor (Homo sapiens, UniProt P00533) (P00533 whole entry): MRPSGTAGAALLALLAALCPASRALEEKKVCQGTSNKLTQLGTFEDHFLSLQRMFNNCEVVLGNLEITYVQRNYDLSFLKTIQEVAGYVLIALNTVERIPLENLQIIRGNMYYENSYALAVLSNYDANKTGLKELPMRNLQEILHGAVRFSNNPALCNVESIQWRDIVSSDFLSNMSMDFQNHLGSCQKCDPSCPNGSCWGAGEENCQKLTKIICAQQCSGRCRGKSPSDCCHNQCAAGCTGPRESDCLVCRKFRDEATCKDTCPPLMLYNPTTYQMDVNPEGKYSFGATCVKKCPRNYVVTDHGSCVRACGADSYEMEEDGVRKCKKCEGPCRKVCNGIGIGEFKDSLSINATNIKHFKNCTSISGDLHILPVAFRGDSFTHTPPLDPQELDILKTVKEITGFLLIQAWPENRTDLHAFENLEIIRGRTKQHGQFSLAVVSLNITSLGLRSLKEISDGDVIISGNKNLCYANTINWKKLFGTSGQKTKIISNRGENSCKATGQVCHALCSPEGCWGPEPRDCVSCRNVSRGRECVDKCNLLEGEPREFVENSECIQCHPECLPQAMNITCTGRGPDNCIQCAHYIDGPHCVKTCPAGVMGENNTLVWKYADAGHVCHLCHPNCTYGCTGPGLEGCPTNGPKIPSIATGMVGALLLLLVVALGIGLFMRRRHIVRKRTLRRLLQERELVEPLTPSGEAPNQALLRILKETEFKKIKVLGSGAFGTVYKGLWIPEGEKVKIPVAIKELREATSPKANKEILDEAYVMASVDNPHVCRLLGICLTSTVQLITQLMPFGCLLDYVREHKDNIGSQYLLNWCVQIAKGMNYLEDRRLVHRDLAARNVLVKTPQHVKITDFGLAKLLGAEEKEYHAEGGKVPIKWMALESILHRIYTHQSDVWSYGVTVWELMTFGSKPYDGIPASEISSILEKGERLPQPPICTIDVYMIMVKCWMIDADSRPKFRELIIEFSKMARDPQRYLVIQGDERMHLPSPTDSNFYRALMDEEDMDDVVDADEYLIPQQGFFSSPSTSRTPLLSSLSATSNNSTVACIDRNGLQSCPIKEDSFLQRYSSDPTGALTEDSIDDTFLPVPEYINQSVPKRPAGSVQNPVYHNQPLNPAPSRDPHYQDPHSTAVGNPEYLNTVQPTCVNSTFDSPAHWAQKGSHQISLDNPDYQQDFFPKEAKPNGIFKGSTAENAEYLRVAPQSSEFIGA
# Description: Inhibition of N-terminal GST tagged human recombinant EGFR (695 to end residues) expressed in baculovirus infected Sf9 cells using Poly (4:1 Glu, Tyr) as substrate incubated for 60 mins in presence of ATP by ADP-Glo luminescent assay
# [2] = molecular target: Epidermal growth factor receptor (Homo sapiens, UniProt P00533, L858R); assay: biochemical
# Chain of Epidermal growth factor receptor (Homo sapiens, UniProt P00533, L858R) (P00533 25-1210 L858R limits assumed): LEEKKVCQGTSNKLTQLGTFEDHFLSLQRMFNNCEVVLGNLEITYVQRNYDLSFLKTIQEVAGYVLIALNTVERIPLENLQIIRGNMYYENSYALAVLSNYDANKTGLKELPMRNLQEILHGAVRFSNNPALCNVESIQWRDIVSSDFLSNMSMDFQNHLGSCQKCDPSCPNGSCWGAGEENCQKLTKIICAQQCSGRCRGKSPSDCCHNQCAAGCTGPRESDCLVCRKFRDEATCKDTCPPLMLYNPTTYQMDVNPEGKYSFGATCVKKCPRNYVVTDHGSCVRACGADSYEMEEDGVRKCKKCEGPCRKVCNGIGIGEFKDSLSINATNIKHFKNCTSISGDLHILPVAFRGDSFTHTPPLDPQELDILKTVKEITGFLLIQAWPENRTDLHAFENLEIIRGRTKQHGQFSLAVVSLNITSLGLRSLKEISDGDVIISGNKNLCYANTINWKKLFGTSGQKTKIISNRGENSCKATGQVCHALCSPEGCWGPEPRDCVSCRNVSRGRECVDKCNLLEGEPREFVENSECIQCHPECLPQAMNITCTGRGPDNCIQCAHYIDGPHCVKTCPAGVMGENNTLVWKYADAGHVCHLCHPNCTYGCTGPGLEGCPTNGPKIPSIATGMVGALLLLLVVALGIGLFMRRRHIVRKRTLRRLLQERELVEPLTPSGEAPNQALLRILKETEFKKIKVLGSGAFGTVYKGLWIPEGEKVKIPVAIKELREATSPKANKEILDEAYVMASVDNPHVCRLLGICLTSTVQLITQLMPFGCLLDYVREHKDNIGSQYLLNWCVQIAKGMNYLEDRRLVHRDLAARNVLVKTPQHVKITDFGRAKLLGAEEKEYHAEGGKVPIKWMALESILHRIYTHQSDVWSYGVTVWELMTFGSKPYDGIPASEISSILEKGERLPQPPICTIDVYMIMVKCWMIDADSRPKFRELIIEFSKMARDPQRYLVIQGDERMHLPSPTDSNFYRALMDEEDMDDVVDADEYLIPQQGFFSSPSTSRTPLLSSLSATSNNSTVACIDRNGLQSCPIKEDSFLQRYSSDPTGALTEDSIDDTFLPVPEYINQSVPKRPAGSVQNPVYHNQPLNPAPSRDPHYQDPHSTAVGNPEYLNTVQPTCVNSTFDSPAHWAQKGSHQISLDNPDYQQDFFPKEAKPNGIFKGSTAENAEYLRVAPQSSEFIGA
# [3] = molecular target: Hepatocyte growth factor receptor (Homo sapiens, UniProt P08581); assay: biochemical
# Chain of Hepatocyte growth factor receptor (P08581 whole entry): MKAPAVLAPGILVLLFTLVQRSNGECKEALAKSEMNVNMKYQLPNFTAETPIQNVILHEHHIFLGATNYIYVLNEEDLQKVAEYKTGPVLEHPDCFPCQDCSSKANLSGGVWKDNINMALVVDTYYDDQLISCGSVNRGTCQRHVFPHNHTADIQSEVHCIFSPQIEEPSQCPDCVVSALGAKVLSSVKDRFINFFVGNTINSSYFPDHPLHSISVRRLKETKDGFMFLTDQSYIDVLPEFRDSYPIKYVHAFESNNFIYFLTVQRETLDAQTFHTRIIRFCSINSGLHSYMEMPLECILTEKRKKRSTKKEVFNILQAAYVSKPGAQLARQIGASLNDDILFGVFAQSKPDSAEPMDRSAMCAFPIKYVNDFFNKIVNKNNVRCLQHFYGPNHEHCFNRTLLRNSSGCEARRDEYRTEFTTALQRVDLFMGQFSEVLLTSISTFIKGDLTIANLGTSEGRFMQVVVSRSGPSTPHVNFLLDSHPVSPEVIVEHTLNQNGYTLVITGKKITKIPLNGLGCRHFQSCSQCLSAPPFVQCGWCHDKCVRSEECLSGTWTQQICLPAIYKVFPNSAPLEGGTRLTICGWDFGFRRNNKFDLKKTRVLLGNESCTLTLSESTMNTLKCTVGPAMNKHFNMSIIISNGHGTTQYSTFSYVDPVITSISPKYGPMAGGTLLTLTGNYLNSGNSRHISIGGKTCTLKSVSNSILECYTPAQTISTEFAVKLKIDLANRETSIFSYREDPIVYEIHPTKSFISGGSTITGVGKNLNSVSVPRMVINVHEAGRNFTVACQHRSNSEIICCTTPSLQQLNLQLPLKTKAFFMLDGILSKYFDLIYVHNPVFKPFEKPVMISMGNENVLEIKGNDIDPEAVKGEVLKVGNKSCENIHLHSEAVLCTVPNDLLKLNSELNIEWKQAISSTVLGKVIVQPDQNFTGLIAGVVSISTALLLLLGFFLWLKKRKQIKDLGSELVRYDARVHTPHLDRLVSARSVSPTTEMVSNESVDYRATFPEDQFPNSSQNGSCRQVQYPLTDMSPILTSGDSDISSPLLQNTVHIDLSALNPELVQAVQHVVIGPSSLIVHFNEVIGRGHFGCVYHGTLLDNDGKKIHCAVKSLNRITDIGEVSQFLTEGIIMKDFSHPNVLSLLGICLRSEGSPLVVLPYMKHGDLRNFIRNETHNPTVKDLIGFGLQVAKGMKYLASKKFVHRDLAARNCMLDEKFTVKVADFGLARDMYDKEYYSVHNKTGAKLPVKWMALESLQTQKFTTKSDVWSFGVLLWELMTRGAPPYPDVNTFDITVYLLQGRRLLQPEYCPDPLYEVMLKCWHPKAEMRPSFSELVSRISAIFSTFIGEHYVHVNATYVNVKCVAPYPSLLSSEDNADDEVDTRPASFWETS
# Description: Inhibition of N-terminal GST tagged human recombinant c-Met (956 to end residues) expressed in baculovirus infected Sf9 cells using Poly (4:1 Glu, Tyr) as substrate incubated for 60 mins in presence of ATP by ADP-Glo luminescent assay
smiles,measurement,setting,value
CCC(=O)Nc1cc2c(Oc3ccc(NC(=O)c4sc(-c5ccccc5)nc4C)cc3F)cccc2cc1OC,IC50,A549,2.35 µM
same,IC50,NCI-H1975,3.56 µM
same,IC50,PC-9,2.94 µM
same,IC50,[1],3.9 µM
same,IC50,[2],> 10 µM
same,IC50,[3],0.0706 µM
CCCC(=O)Nc1cc2c(Oc3ccc(NC(=O)CCCc4ccc(C)cc4)cc3F)ncnc2cc1OC,IC50,A549,14 µM
same,IC50,NCI-H1975,14.2 µM
same,IC50,PC-9,28.9 µM
same,IC50,[1],> 10 µM
same,IC50,[2],> 10 µM
same,IC50,[3],0.678 µM
CCC(=O)Nc1cc2c(Oc3ccc(NC(=O)c4c(-c5c(Cl)cccc5Cl)noc4C)cc3F)cccc2cc1OC,IC50,A549,7.95 µM
same,IC50,NCI-H1975,4.91 µM
same,IC50,PC-9,5.22 µM
same,IC50,[1],> 10 µM
same,IC50,[2],> 10 µM
same,IC50,[3],3.48 µM
C=CC(=O)Nc1cc2c(Oc3ccc(NC(=O)CCCc4ccsc4)cc3F)ncnc2cc1OC,IC50,A549,5.14 µM
same,IC50,NCI-H1975,4.72 µM
same,IC50,PC-9,0.99 µM
same,IC50,[1],> 10 µM
same,IC50,[2],> 10 µM
same,IC50,[3],0.693 µM
CCC(=O)Nc1cc2c(Oc3ccc(NC(=O)NCCc4ccc(OC)c(OC)c4)cc3F)ncnc2cc1OC,IC50,A549,> 50 µM
same,IC50,NCI-H1975,> 50 µM
same,IC50,PC-9,> 50 µM
same,IC50,[1],> 10 µM
same,IC50,[2],> 10 µM
same,IC50,[3],0.0905 µM
CCC(=O)Nc1cc2c(Oc3ccc(NC(=O)CCCc4ccc(C)cc4)cc3F)ncnc2cc1OC,IC50,A549,3.29 µM
same,IC50,NCI-H1975,19.1 µM
same,IC50,PC-9,7.84 µM
same,IC50,[1],8.43 µM
same,IC50,[2],> 10 µM
same,IC50,[3],1.18 µM
C=CC(=O)Nc1cc2c(Oc3ccc(NC(=O)c4c(-c5c(Cl)cccc5Cl)noc4C)cc3F)cccc2cc1OC,IC50,A549,4.57 µM
same,IC50,NCI-H1975,4.9 µM
same,IC50,PC-9,6.73 µM
same,IC50,[3],1.77 µM
CCC(=O)Nc1cc2c(Oc3ccc(NC(=O)CCCc4ccc(OC)cc4)cc3F)ncnc2cc1OC,IC50,A549,2.87 µM
same,IC50,NCI-H1975,7.05 µM
same,IC50,PC-9,9.28 µM
same,IC50,[1],> 10 µM
same,IC50,[2],> 10 µM
same,IC50,[3],0.273 µM
COc1cc2ncnc(Oc3ccc(NC(=O)CCCc4ccc(C)cc4)cc3F)c2cc1NC(=O)CCC(C)C,IC50,A549,> 50 µM
same,IC50,NCI-H1975,27.5 µM
same,IC50,PC-9,> 50 µM
same,IC50,[1],> 10 µM
same,IC50,[2],> 10 µM
same,IC50,[3],3.07 µM
C/C=C/C(=O)Nc1cc2c(Oc3ccc(NC(=O)CCCc4ccsc4)cc3F)ncnc2cc1OC,IC50,A549,21.7 µM
same,IC50,NCI-H1975,> 50 µM
same,IC50,PC-9,1.63 µM
same,IC50,[1],> 10 µM
same,IC50,[2],> 10 µM
same,IC50,[3],1.39 µM
CCCC(=O)Nc1cc2c(Oc3ccc(NC(=O)c4sc(-c5ccccc5)nc4C)cc3F)cccc2cc1OC,IC50,A549,8.15 µM
same,IC50,NCI-H1975,5.1 µM
same,IC50,PC-9,> 50 µM
same,IC50,[1],> 10 µM
same,IC50,[2],> 10 µM
same,IC50,[3],0.0719 µM
C/C=C/C(=O)Nc1cc2c(Oc3ccc(NC(=O)CCCc4ccc(OC)cc4)cc3F)ncnc2cc1OC,IC50,A549,6.43 µM
same,IC50,NCI-H1975,> 50 µM
same,IC50,PC-9,8.17 µM
same,IC50,[1],> 10 µM
same,IC50,[2],> 10 µM
same,IC50,[3],0.493 µM
CCCC(=O)Nc1cc2c(Oc3ccc(NC(=O)c4c(-c5c(Cl)cccc5Cl)noc4C)cc3F)cccc2cc1OC,IC50,A549,> 50 µM
same,IC50,NCI-H1975,> 50 µM
same,IC50,PC-9,> 50 µM
same,IC50,[1],> 10 µM
same,IC50,[2],> 10 µM
same,IC50,[3],5.93 µM
CCCCC(=O)Nc1cc2c(Oc3ccc(NC(=O)CCCc4ccccc4)cc3F)ncnc2cc1OC,IC50,A549,7.15 µM
same,IC50,NCI-H1975,8.39 µM
same,IC50,PC-9,8.84 µM
same,IC50,[1],> 10 µM
same,IC50,[2],> 10 µM
same,IC50,[3],0.605 µM
CCC(=O)Nc1cc2c(Oc3ccc(NC(=O)n4c(=O)c(-c5ccccc5)c(C)n4C)cc3F)cccc2cc1OC,IC50,A549,8.42 µM
same,IC50,NCI-H1975,22.2 µM
same,IC50,PC-9,1.06 µM
same,IC50,[1],> 10 µM
same,IC50,[2],> 10 µM
same,IC50,[3],0.00102 µM
CCCCC(=O)Nc1cc2c(Oc3ccc(NC(=O)CCCc4ccc(C)cc4)cc3F)ncnc2cc1OC,IC50,A549,6.22 µM
same,IC50,NCI-H1975,> 50 µM
same,IC50,PC-9,> 50 µM
same,IC50,[1],> 10 µM
same,IC50,[2],> 10 µM
same,IC50,[3],2 µM
CCCCC(=O)Nc1cc2c(Oc3ccc(NC(=O)CCCc4ccc(OC)cc4)cc3F)ncnc2cc1OC,IC50,A549,29.8 µM
same,IC50,NCI-H1975,43.4 µM
same,IC50,PC-9,> 50 µM
same,IC50,[1],> 10 µM
same,IC50,[2],> 10 µM
same,IC50,[3],0.824 µM
CCC(=O)Nc1cc2c(Oc3ccc(NC(=O)NCCc4csc(Br)c4)cc3F)ncnc2cc1OC,IC50,A549,8.42 µM
same,IC50,NCI-H1975,11.1 µM
same,IC50,PC-9,4.97 µM
same,IC50,[1],> 10 µM
same,IC50,[2],> 10 µM
same,IC50,[3],0.247 µM
CCCC(=O)Nc1cc2c(Oc3ccc(NC(=O)n4c(=O)c(-c5ccccc5)c(C)n4C)cc3F)cccc2cc1OC,IC50,A549,10.2 µM
same,IC50,NCI-H1975,> 50 µM
same,IC50,PC-9,> 50 µM
same,IC50,[1],4.21 µM
same,IC50,[2],> 10 µM
same,IC50,[3],0.00411 µM
COc1cc2ncnc(Oc3ccc(NC(=O)CCCc4ccccc4)cc3F)c2cc1NC(=O)CCC(C)C,IC50,A549,> 50 µM
same,IC50,NCI-H1975,13.7 µM
same,IC50,PC-9,33.7 µM
same,IC50,[1],> 10 µM
same,IC50,[2],> 10 µM
same,IC50,[3],1.48 µM
C/C=C/C(=O)Nc1cc2c(Oc3ccc(NC(=O)n4c(=O)c(-c5ccccc5)c(C)n4C)cc3F)cccc2cc1OC,IC50,A549,2.7 µM
same,IC50,NCI-H1975,9.42 µM
same,IC50,PC-9,8.88 µM
same,IC50,[1],4.83 µM
same,IC50,[2],> 10 µM
same,IC50,[3],0.015 µM
C=CC(=O)Nc1cc2c(Oc3ccc(NC(=O)NCCC4CCCCC4)cc3F)ncnc2cc1OC,IC50,A549,1.57 µM
same,IC50,NCI-H1975,4.26 µM
same,IC50,PC-9,1.68 µM
same,IC50,[1],1.28 µM
same,IC50,[2],1.39 µM
same,IC50,[3],0.088 µM
COc1cc2ncnc(Oc3ccc(NC(=O)CCCc4ccsc4)cc3F)c2cc1NC(=O)CCC(C)C,IC50,A549,13 µM
same,IC50,NCI-H1975,> 50 µM
same,IC50,PC-9,> 50 µM
same,IC50,[1],> 10 µM
same,IC50,[2],> 10 µM
same,IC50,[3],5.55 µM
CCCCC(=O)Nc1cc2c(Oc3ccc(NC(=O)CCCc4ccc(F)cc4)cc3F)ncnc2cc1OC,IC50,A549,> 50 µM
same,IC50,NCI-H1975,41.2 µM
same,IC50,PC-9,> 50 µM
same,IC50,[1],> 10 µM
same,IC50,[2],> 10 µM
same,IC50,[3],0.533 µM
C/C=C/C(=O)Nc1cc2c(Oc3ccc(NC(=O)CCCc4ccc(F)cc4)cc3F)ncnc2cc1OC,IC50,A549,> 50 µM
same,IC50,NCI-H1975,4.78 µM
same,IC50,PC-9,2.31 µM
same,IC50,[1],4.54 µM
same,IC50,[2],5.72 µM
same,IC50,[3],0.67 µM
CCCC(=O)Nc1cc2c(Oc3ccc(NC(=O)CCCc4ccccc4)cc3F)ncnc2cc1OC,IC50,A549,7.66 µM
same,IC50,NCI-H1975,4.96 µM
same,IC50,PC-9,9.31 µM
same,IC50,[1],2.65 µM
same,IC50,[2],4.65 µM
same,IC50,[3],0.316 µM
C=CC(=O)Nc1cc2c(Oc3ccc(NC(=O)c4sc(-c5ccccc5)nc4C)cc3F)cccc2cc1OC,IC50,A549,1.94 µM
same,IC50,NCI-H1975,2.4 µM
same,IC50,PC-9,2.33 µM
same,IC50,[1],0.173 µM
same,IC50,[2],0.518 µM
same,IC50,[3],0.0386 µM
CCC(=O)Nc1cc2c(Oc3ccc(NC(=O)NCCC4CCCCC4)cc3F)ncnc2cc1OC,IC50,A549,2.43 µM
same,IC50,NCI-H1975,2.94 µM
same,IC50,PC-9,> 50 µM
same,IC50,[1],4.69 µM
same,IC50,[2],> 10 µM
same,IC50,[3],0.143 µM
CCCC(=O)Nc1cc2c(Oc3ccc(NC(=O)CCCc4ccsc4)cc3F)ncnc2cc1OC,IC50,A549,> 50 µM
same,IC50,NCI-H1975,> 50 µM
same,IC50,PC-9,13.8 µM
same,IC50,[1],> 10 µM
same,IC50,[2],> 10 µM
same,IC50,[3],0.959 µM
C=CC(=O)Nc1cc2c(Oc3ccc(NC(=O)CCCc4ccc(C)cc4)cc3F)ncnc2cc1OC,IC50,A549,5.21 µM
same,IC50,NCI-H1975,0.43 µM
same,IC50,PC-9,7.67 µM
same,IC50,[1],1.79 µM
same,IC50,[2],1.47 µM
same,IC50,[3],0.394 µM
C/C=C/C(=O)Nc1cc2c(Oc3ccc(NC(=O)CCCc4ccc(C)cc4)cc3F)ncnc2cc1OC,IC50,A549,4.56 µM
same,IC50,NCI-H1975,9.49 µM
same,IC50,PC-9,8.4 µM
same,IC50,[1],7.65 µM
same,IC50,[2],> 10 µM
same,IC50,[3],0.531 µM
